Results published in patent US8324390B2, “Tetrazole-substituted anthranilamides as pesticides” (Bayer CropScience AG, priority 2008, dated 2012).
Read-outs that look alike come from different tables or passages of the source.

Key:
adult Musca domestica = experiment: Musca domestica test (MUSCDO); type: in vivo; details: treated sponge, read-out: kill in % (flies killed)
Protocol: (§1) Solvent: dimethyl sulphoxide
Vessels containing a sponge treated with the active compound preparation of the desired concentration are populated with adult Musca domestica.
(§2) After the desired period of time, the kill in % is determined.

[1] = test system: green peach aphid (Myzus persicae); experiment: Myzus test (MYZUPE spray treatment); type: in vivo; details: Myzus persicae, foliar, read-out: effect in % (aphids killed)
Source text: Solvent: 78 parts by weight of acetone
(§3) Solvent: 78.0 parts by weight of acetone

[2] = test system: caterpillars of the armyworm (Spodoptera frugiperda); experiment: Spodoptera frugiperda test (SPODFR spray treatment); type: in vivo; details: Spodoptera frugiperda, foliar, read-out: effect in % (caterpillars killed)
Source text: as §3

Lucilia cuprina larvae = experiment: Lucilia cuprina test (LUCICU); type: in vivo; details: in Equus caballus, read-out: kill in % (larvae killed)
Protocol: as §1
Vessels containing horse meat treated with the active compound preparation of the desired concentration are populated with Lucilia cuprina larvae.
as §2

[3] = test system: larvae of the mustard beetle (Phaedon cochleariae); experiment: Phaedon test (PHAECO spray treatment); details: Phaedon cochleariae, in Brassica rapa, foliar, read-out: effect in % (beetle larvae killed)
[4] = log P determination by HPLC (EEC Directive 79/831 Annex V.A8); type: physicochemical
Protocol: The measurements were carried out using an Agilent 1100 LC system with a 50*4.6 Zorbax Eclipse C18 1.8 μm column (oven temperature 55° C., flow rate 2.0 ml/min).
The following mobile phases were used:
Mobile phase A: acetonitrile+1000 μl of formic acid/l
Mobile phase B: Millipore water+900 μl of formic acid/l

Boophilus microplus = Boophilus microplus test (BOOPMI injection); type: in vivo; details: Rhipicephalus microplus, read-out: effect in % (no fertile eggs laid)
Protocol: as §1
The solution of active compound is injected into the abdomen (Boophilus microplus), and the animals are transferred into dishes and kept in a climatised room. The activity is assessed by […] of fertile eggs.
100% means that none of the ticks has laid any fertile eggs.

[5] = test system: two-spotted spidermite (Tetranychus urticae); experiment: Tetranychus urticae test; OP-resistant (TETRUR spray application); type: in vivo; details: read-out: mortality in % (spider mites killed)
Source text: Solvent: 78.0 parts by weight acetone
• 1.5 parts by weight dimethylformamide Emulsifier 0.5 part by weight alkylaryl polyglycol ether
French beans (Phaseolus vulgaris) which are heavily infested with all stages of the two-spotted spidermite (Tetranychus urticae) are sprayed with a preparation of the active compound at the desired concentration.

[6] = by HPLC according to EEC Directive 79/831 Annex V.A8, read-out: log P
[7] = 20 μg/animal, injection into the abdomen

| Structure (SMILES) | pest or weed control at 100 ppm (adult Musca domestica) [%] | pest or weed control at 100 g/ha ([1]; in Brassica rapa) [%] | pest or weed control at 100 g/ha ([2]; in Zea mays) [%] | pest or weed control at 100 ppm (Lucilia cuprina larvae) [%] | pest or weed control at 100 g/ha [3] [%] | chromatographic logP [4, 6] | pest or weed control at 0.02 mg (Boophilus microplus) [%] | chromatographic logP ([4]; log P) | pest or weed control at 0.02 mg (Boophilus microplus; [7]) [%] | mortality at 20 g/ha [5] [%] | pest or weed control at 100 g/ha ([1]; application rate 100 g/ha, Chinese cabbage leaf discs) [%] | pest or weed control at 100 g/ha ([2]; application rate 100 g/ha, maize leaf discs) [%] | chromatographic logP ([4]; reversed-phase HPLC, Zorbax Eclipse C18 column, determined by HPLC according to EEC Directive 79/831 Annex V.A8, read-out: log P) |
| --- | --- | --- | --- | --- | --- | --- | --- | --- | --- | --- | --- | --- | --- |
| CNC(=O)c1cc(Cl)cc(C)c1NC(=O)c1cc(Cn2nnc(C(F)(F)C(F)(F)C(F)(F)F)n2)nn1-c1ncccc1Cl [Example 2] | ≥ 80 | ≥ 80 | ≥ 80 | ≥ 80 | ≥ 80 | 3.75 | ≥ 80 |  |  |  |  |  |  |
| Cc1cc(Cl)cc(C(N)=O)c1NC(=O)c1cc(Cn2nnc(C(F)(F)C(F)(F)C(F)(F)F)n2)nn1-c1ncccc1Cl [Example 3] | ≥ 80 |  | ≥ 80 | ≥ 80 | ≥ 80 | 3.49 | ≥ 80 |  |  |  |  |  |  |
| CNC(=O)c1cc(C#N)cc(C)c1NC(=O)c1cc(Cn2nnc(C(F)(F)C(F)(F)C(F)(F)F)n2)nn1-c1ncccc1Cl [Example 5] | ≥ 80 | ≥ 80 | ≥ 80 | ≥ 80 | ≥ 80 | 3.43 | ≥ 80 |  |  |  |  |  |  |
| Cc1cc(C#N)cc(C(N)=O)c1NC(=O)c1cc(Cn2nnc(C(F)(F)C(F)(F)C(F)(F)F)n2)nn1-c1ncccc1Cl [Example 7] | ≥ 80 | ≥ 80 | ≥ 80 | ≥ 80 | ≥ 80 | 3.17 | ≥ 80 |  |  |  |  |  |  |
| Cc1cc(C#N)cc(C(=O)NC(C)C)c1NC(=O)c1cc(Cn2nnc(C(F)(F)F)n2)nn1-c1ncccc1Cl [Example 10] | ≥ 80 |  | ≥ 80 | ≥ 80 | ≥ 80 |  |  | 3.07 | ≥ 80 |  |  |  |  |
| CNC(=O)c1cc(Cl)cc(C)c1NC(=O)c1cc(Cn2nnc(C(F)(F)F)n2)nn1-c1ncccc1Cl [Example 11] | ≥ 80 | ≥ 80 | ≥ 80 | ≥ 80 | ≥ 80 |  |  | 3.05 | ≥ 80 |  |  |  |  |
| Cc1cc(C#N)cc(C(=O)NC2CC2)c1NC(=O)c1cc(Cn2nnc(C(F)(F)F)n2)nn1-c1ncccc1Cl [Example 13] | ≥ 80 | ≥ 80 | ≥ 80 | ≥ 80 | ≥ 80 |  |  | 2.84 | ≥ 80 |  |  |  |  |
| Cc1cc(I)cc(C(=O)NC(C)(C)C)c1NC(=O)c1cc(Cn2nnc(C(F)(F)C(F)(F)F)n2)nn1-c1ncccc1Cl [Example 218] | ≥ 80 |  | ≥ 80 | ≥ 80 | ≥ 80 |  |  | 4.5 | ≥ 80 |  |  |  |  |
| CNC(=O)c1cc(Cl)cc(Cl)c1NC(=O)c1cc(Cn2nnc(C(F)(F)C(F)(F)F)n2)nn1-c1ncccc1Cl [Example 222] |  | ≥ 80 | ≥ 80 | ≥ 80 | ≥ 80 |  |  | 3.34 | ≥ 80 |  |  |  |  |
| CC(C)(C)NC(=O)c1cc(Cl)cc(Cl)c1NC(=O)c1cc(Cn2nnc(C(F)(F)C(F)(F)F)n2)nn1-c1ncccc1Cl [Example 223] | ≥ 80 | ≥ 80 | ≥ 80 | ≥ 80 | ≥ 80 |  |  | 4.16 | ≥ 80 |  |  |  |  |
| Cc1cc(F)cc(C(=O)NC(C)C)c1NC(=O)c1cc(Cn2nnc(C(F)F)n2)nn1-c1ncccc1Cl [Example 295] |  | ≥ 80 | ≥ 80 | ≥ 80 | ≥ 80 |  |  | 2.64 | ≥ 80 |  |  |  |  |
| Cc1cc(Cl)cc(C(=O)NC(C)C)c1NC(=O)c1cc(Cn2nnc(C(F)(C(F)(F)F)C(F)(F)F)n2)nn1-c1ncccc1Cl [Example 363] |  |  | ≥ 80 |  | ≥ 80 |  |  | 4.21 |  | ≥ 80 |  |  |  |
| CNC(=O)c1cc(Cl)cc(C)c1NC(=O)c1cc(Cn2nnnc2C(F)(F)F)nn1-c1ccc(Cl)cc1Cl [Example 449] |  |  |  |  | ≥ 80 |  |  |  |  | ≥ 80 | ≥ 80 | ≥ 80 | 3.64 |
